Data published in US20260035338A1, “AMINO LIPID COMPOUND AND LIPID NANOPARTICLE FOR DELIVERING BIOACTIVE INGREDIENT” (SHENZHEN SHENXIN BIOTECHNOLOGY CO., LTD., priority 2022, published 2026).

Columns and labels:
[1] = tested on: immune cell populations in the spleen and PBMC; assay: Delivery efficiency of eGFP mRNA LNP to immune cell populations in spleen and peripheral blood (flow cytometry); format: in vivo; details: eGFP mRNA encapsulating LNP, intravenous, C57BL/6 mice, 12 hours, flow cytometry (FIG. 6 to 7)
Protocol: C57BL/6 mice (3 mice per group) were intravenously injected with eGFP mRNA encapsulating LNP. After 12 hours, the mice were dissected, and the spleen and peripheral blood, were collected to prepare single-cell suspensions of various tissues and organs. After blocking with Fc blocking antibodies and surface staining with fluorescent-labeled antibodies, flow cytometry was conducted to analyze the expression levels of eGFP in various immune cell populations to confirm the delivery efficiency of lipid nanoparticles comprising different amino lipid compounds to immune cell populations in different tissues and organs.
“Blank” in FIG. 6 and FIG. 7 refers to the control group injected with 100 μL Tris buffer.

BALB/c mice = assay: In vivo delivery of Fluc mRNA-encapsulating LNP formulations, luciferase signal by In Vivo Imaging System (IVIS); details: tail vein injection (IV) 70 μL, female BALB/c mice, 6 hours after injection; for Average number of photons (Total in-vivo flux): LNP formulation encapsulating Fluc mRNA (Lipid:DSPC:CHO-HP:M-DMG-2000 48:10:40.5:1.5); for Average number of photons (Liver) / Average number of photons (Spleen): LNP formulation encapsulating Fluc mRNA
Protocol: Animal preparation: Female BALB/c mice of 6-8 weeks old were selected and raised in an SPF grade breeding room. Animal testing was conducted in strict accordance with the guidelines of national health institutions and animal ethics requirements.
In vivo Delivery: prior to injection of the test LNP formulation, the LNP formulation was gently and repeatedly inverted to thoroughly mix the sample of the formulation. A corresponding amount of the LNP formulation was aspirated with a 1 ml insulin syringe, and the LNP formulation was injected by tail vein injection (IV), with 3 mice in duplicate per formulation. Each mouse was injected with 70 μL of the corresponding LNP formulation encapsulating the luciferase mRNA (Fluc mRNA) prepared in Experimental Example 1.
6 hours after injection of LNP formulations, mice were injected with 200 μL D-Luciferin luciferase developing substrate (Catalog No. 122799; Manufacturer: Perkin Elmer). After the substrate was injected, the mice were anesthetized with isoflurane inhalation, and the injection time of luciferase developing substrate was recorded.
The encapsulation efficiency of the lipid nanoparticle encapsulating luciferase mRNA (Fluc mRNA) with a representative amino lipid compound and the fluorescence expression intensity induced by the same are shown in Table 4, with the LNP formulation containing SM-102, 1001 or ALC-0315 as a control LNP formulation. The preparation method of the control LNP formulation was basically the same as that of the LNP formulations in Experimental Example 1, with the difference lying in that the amino lipid compounds of the present disclosure were replaced with SM-102, 1001 or ALC-0315 in the preparation of the control LNP formulation.

| SMILES | delivery efficiency to immune cell populations (eGFP expression) [1] | Average number of photons (Total in-vivo flux) (BALB/c mice) | Average number of photons (Liver) (BALB/c mice) | Average number of photons (Spleen) (BALB/c mice) |
| --- | --- | --- | --- | --- |
| CCCCCCOC(CCCOC(=O)CCCCCCCCC(CCCCCCCCC(=O)OCCCC(OCCCCCC)OCCCCCC)OC(=O)OCCCN(CC)CC)OCCCCCC [compound 382] | different delivery preferences to different immune cells | 5.28E+07 | 6.78E+06 | 1.88E+05 |
| CCCCCCOC(CCCOC(=O)CCCCCCCC(CCCCCCCC(=O)OCCCC(OCCCCCC)OCCCCCC)OC(=O)OCCCN(C)C)OCCCCCC [compound 2041] | different delivery preferences to different immune cells | 2.08E+08 | 4.16E+07 | 1.07E+07 |
| CCCCCCCOC(CCCOC(=O)CCCCCCCCC(CCCCCCCCC(=O)OCCCC(OCCCCC)OCCCCC)OC(=O)OCCCN(C)C)OCCCCCCC (centres unmarked) [compound 851] | – | 1.28E+08 | 2.21E+07 | 1.93E+06 |
| CCCCCCOC(CCCOC(=O)CCCCC(CCCCC(=O)OCCCC(OCCCCCC)OCCCCCC)OC(=O)OCCCN(CC)CC)OCCCCCC [compound 2042] | different delivery preferences to different immune cells | – | – | – |
| CCCCCCCCC(=O)OCCCCCCCCOC(=O)CCCCCCCCC(CCCCCCCCC(=O)OCCCC(OCCCCCC)OCCCCCC)OC(=O)OCCCN(CC)CC (centres unmarked) [compound 433] | – | 2.56E+07 | 3.83E+06 | 2.44E+05 |
| CCCCCOC(CCCCCOC(=O)CCCCCCCCC(CCCCCCCCC(=O)OCCCCCC(OCCCCC)OCCCCC)OC(=O)OCCCN(CC)CC)OCCCCC [compound 390] | – | 5.23E+07 | 7.04E+06 | 3.84E+05 |
| CCCCCCOC(CCCOC(=O)CCCCCCCCC(CCCCCCCCC(=O)OCCCC(OCCCCC)OCCCCC)OC(=O)OCCCN(CC)CC)OCCCCCC (centres unmarked) [compound 861] | – | 6.67E+07 | 1.17E+07 | 3.52E+05 |
| CCCCCCOC(CCCOC(=O)CCCCCC(CCCCCC(=O)OCCCC(OCCCCCC)OCCCCCC)OC(=O)OCCCN(CC)CC)OCCCCCC [compound 2043] | different delivery preferences to different immune cells | 1.64E+08 | 2.59E+07 | 1.07E+07 |
| CCCCCCOC(CCOC(=O)CCCCCCCCC(CCCCCCCCC(=O)OCCC(OCCCCCC)OCCCCCC)OC(=O)OCCCN(C)C)OCCCCCC [compound 2035] | – | 1.49E+08 | 3.12E+07 | 7.61E+05 |
| CCCCCCOC(CCCOC(=O)CCCCCC(CCCCCC(=O)OCCCC(OCCCCCC)OCCCCCC)OC(=O)OCCCN(CC)CC)OCCCCCC [compound 2045] | different delivery preferences to different immune cells | 5.83E+07 | 8.90E+06 | 1.89E+06 |
| CCCCCCOC(CCCOC(=O)CCCCCCCCC(CCCCCCCCC(=O)OCCCC(OCCCCCC)OCCCCCC)OC(=O)OCCC1CCCN1C)OCCCCCC (centres unmarked) [compound 398] | – | 1.79E+08 | 2.78E+07 | 6.36E+05 |
| CCCCCCCCC(=O)OCCCCCCCCOC(=O)CCCCCCCCC(CCCCCCCCC(=O)OCCCC(OCCCCCC)OCCCCCC)OC(=O)OCCCN(CC)CC (centres unmarked) [compound 441] | – | 3.09E+07 | 5.62E+06 | 5.52E+05 |
| CCCCCCOC(CCCOC(=O)CCCCCCC(CCCCCCC(=O)OCCCC(OCCCCCC)OCCCCCC)OC(=O)OCCCN(CC)CC)OCCCCCC [compound 2044] | – | 4.94E+07 | 6.90E+06 | 1.18E+06 |
